Test results taken from patent US8927560B2, “4-Aza-2, 3-didehydropodophyllotoxin compounds and process for the preparation thereof” (Council of Scientific & Industrial Research, priority 2010, dated 2015).
Blank lines part the entries; values can stand above or below the compound they belong to.

What was measured:
A-2780 = experiment: SRB in vitro cytotoxicity assay, A-2780 ovarian cancer cells; format: cell-based; conditions: Homo sapiens, A2780, 48 h drug exposure, read-out: In vitro anticancer activity GI50, Ovarian A-2780
Description: (§1) Compounds 4a-4z and 4aa-4ae have been evaluated for their in vitro cytotoxicity in selected human cancer cell lines i.e., colon (Colo205), lung (Hop-62, A549), cervix (SiHa), prostate (PC3), oral (KB, DWD, Gurav), Ovarian (A-2780) and breast (MCF7, Zr-75-1) origin by employing the sulforhodamine B (SRB) assay method (Skehn, P.; Storeng, R.; Scudiero, A.; Monks, J.; MeMohan, D.; Vistica, D.; Jonathan, T. W.; Bokesch, H.; Kenney, S.; Boyd M. R. J. Natl. Cancer Inst. 1990, 82, 1107).
(§2) The synthesized compounds have been evaluated for their in vitro cytotoxicity in human cancer cell lines. A protocol of 48 h continuous drug exposure has been used and a sulforhodamine B (SRB) protein assay has been used to estimate cell viability or growth. The cell lines were grown in DMEM medium containing 10% fetal bovine serum and 2 mM L-glutamine and were inoculated into 96 well microtiter plates in […] at plating densities depending on the doubling time of individual cell lines. The microliter plates were incubated at 37_C, 5% CO2, 95% air, and 100% relative humidity for 24 h prior to addition of experimental drugs. Aliquots of […] of the drug dilutions were added to the appropriate microliter wells already containing […] of cells, suiting in the required final drug concentrations. For each compound four concentrations (0.1, 1, 10 and 100 uM) were evaluated and each was done in triplicate wells. Plates were incubated further for 48 h and assay was terminated by the addition of […] of cold trichloro acetic acid (TCA) (final concentration, 10% TCA) and incubated for 60 min at 4_C. The plates were washed five times with tap water and airdried. Sulforhodamine B (SRB) solution ([…]) at 0.4% (w/v) in 1% acetic acid was added to each of the cells, and plates were incubated for 20 min at room temperature. The residual dye was removed by washing five times with 1% acetic acid. The plates were airdried. Bound stain was subsequently eluted with 10 mM trizma base, and the absorbance was read on an ELISA plate reader at a wavelength of 540 nm with 690 nm reference wavelengths. Percent growth was calculated on a plate by plate basis for test wells relative to control wells. The above determinations were repeated three times. Percentage growth was expressed as the (ratio of average absorbance of the test well to the average absorbance of the control wells)*100. Growth inhibition of 50% (GI50) was calculated from [(Ti−Tz)/(C−Tz)]*100 ¼ 50, which is the drug concentration resulting in a 50% reduction in the net protein increase (as measured by SRB staining) in control cells during the drug incubation. Where, Tz ¼ Optical density at time zero, OD of control ¼ C, and OD of test growth in the presence of drug ¼ Ti.

Colo 205 = experiment: SRB in vitro cytotoxicity assay, Colo 205 colon cancer cells; format: cell-based; conditions: Homo sapiens, 48 h drug exposure, read-out: In vitro anticancer activity GI50, Colon Colo 205
Description: as §1, §2

DWD = experiment: SRB in vitro cytotoxicity assay, DWD oral cancer cells; format: cell-based; conditions: Homo sapiens, 48 h drug exposure, read-out: In vitro anticancer activity GI50, Oral DWD
Description: as §1, §2

Zr-75-1 = experiment: SRB in vitro cytotoxicity assay, Zr-75-1 breast cancer cells; format: cell-based; conditions: Homo sapiens, 48 h drug exposure, read-out: In vitro anticancer activity GI50, Breast Zr-75-1
Description: as §1, §2

A-549 = experiment: SRB in vitro cytotoxicity assay, A-549 lung cancer cells; format: cell-based; conditions: Homo sapiens, A549, 48 h drug exposure, read-out: In vitro anticancer activity GI50, Lung A-549
Description: as §1, §2

KB = experiment: SRB in vitro cytotoxicity assay, KB oral cancer cells; format: cell-based; conditions: Homo sapiens, 48 h drug exposure, read-out: In vitro anticancer activity GI50, Oral KB
Description: as §1, §2

Hop62 = experiment: SRB in vitro cytotoxicity assay, Hop62 lung cancer cells; format: cell-based; conditions: Homo sapiens, HOP-62, 48 h drug exposure, read-out: In vitro anticancer activity GI50, Lung Hop62
Description: as §1, §2

MCF7 = experiment: SRB in vitro cytotoxicity assay, MCF7 breast cancer cells; format: cell-based; conditions: Homo sapiens, 48 h drug exposure, read-out: In vitro anticancer activity GI50, Breast MCF7
Description: as §1, §2

PC3 = experiment: SRB in vitro cytotoxicity assay, PC3 prostate cancer cells; format: cell-based; conditions: Homo sapiens, PC-3, 48 h drug exposure, read-out: In vitro anticancer activity GI50, Prostate PC3
Description: as §1, §2

Gurav = experiment: SRB in vitro cytotoxicity assay, Gurav oral cancer cells; format: cell-based; conditions: Homo sapiens, 48 h drug exposure, read-out: In vitro anticancer activity GI50, Oral Gurav
Description: as §1, §2

SiHa = experiment: SRB in vitro cytotoxicity assay, SiHa cervix cancer cells; format: cell-based; conditions: Homo sapiens, 48 h drug exposure, read-out: In vitro anticancer activity GI50, Cervix SiHa
Description: as §1, §2

Compound: COc1cc(C2C3=C(COC3=O)Nc3ccc4ncsc4c32)cc(OC)c1OC (stereo not drawn) [Compound 4s, 10-(3,4,5-trimethoxyphenyl)-6,7,9,10-tetrahydrofuro[3,4-b][1,3]thiazolo[5,4-f]quinolin-9-one]
GI50 (A-2780): 2300 nM
melting point: 309 to 310 °C
GI50 (Colo 205): 2500 nM
GI50 (DWD): 2500 nM
GI50 (Zr-75-1): 2100 nM
GI50 (A-549): 2400 nM
GI50 (KB): 2100 nM

melting point: 293 to 294 °C
Compound: COc1ccc(C2C3=C(COC3=O)Nc3ccc4cc(C)[nH]c4c32)cc1O (stereo not drawn) [Compound 4k, 10-(3-hydroxy-4-methoxyphenyl)-2-methyl-6,7,9,10-tetrahydro-1H-furo[3,4-b]pyrrolo[2,3-f]quinolin-9-one]
GI50 (A-2780): 190 nM
GI50 (Colo 205): 2700 nM
GI50 (Hop62): 160 nM
GI50 (MCF7): 2000 nM
GI50 (DWD): 2000 nM
GI50 (Zr-75-1): 170 nM
GI50 (A-549): < 100 nM
GI50 (PC3): 170 nM
GI50 (Gurav): 170 nM
GI50 (KB): 2100 nM

melting point: 170 to 172 °C
Compound: COc1cc(C2C3=C(COC3=O)Nc3ccc4cc[nH]c4c32)ccc1F (stereo not drawn) [Compound 4h, 10-(4-fluoro-3-methoxyphenyl)-6,7,9,10-tetrahydro-1H-furo[3,4-b]pyrrolo[2,3-f]quinolin-9-one]
GI50 (A-2780): 2300 nM
GI50 (Hop62): 2600 nM
GI50 (MCF7): 2100 nM
GI50 (DWD): 2600 nM
GI50 (Zr-75-1): 2500 nM
GI50 (A-549): 2200 nM
GI50 (Gurav): 2500 nM
GI50 (KB): 170 nM

Compound: COc1cc(C2C3=C(COC3=O)Nc3onc(-c4ccc(Cl)cc4)c32)cc(OC)c1OC (stereo not drawn) [Compound 4ac, 3-(4-chlorophenyl)-4-(3,4,5-trimethoxyphenyl)-4,5,7,8-tetrahydrofuro[3′,4′:5,6]pyrido[3,2-d]isoxazol-5-one]
GI50 (A-2780): 2000 nM
melting point: 248 to 249 °C
GI50 (SiHa): 2300 nM
GI50 (Hop62): 2500 nM
GI50 (MCF7): 2300 nM
GI50 (DWD): 2000 nM
GI50 (Zr-75-1): 190 nM
GI50 (A-549): < 100 nM
GI50 (PC3): 2300 nM
GI50 (Gurav): 180 nM
GI50 (KB): 2400 nM

melting point: 219 to 221 °C
Compound: COc1ccc(-c2noc3c2C(c2ccc(OC)c(O)c2)C2=C(COC2=O)N3)cc1 (stereo not drawn) [Compound 4ab, 4-(3-hydroxy-4-methoxyphenyl)-3-(4-methoxyphenyl)-4,5,7,8-tetrahydrofuro[3′,4′:5,6]pyrido[3,2-d]isoxazol-5-one]
GI50 (A-2780): 160 nM
GI50 (Colo 205): 2700 nM
GI50 (Hop62): 140 nM
GI50 (MCF7): 190 nM
GI50 (DWD): < 100 nM
GI50 (Zr-75-1): 140 nM
GI50 (A-549): < 100 nM
GI50 (PC3): 160 nM
GI50 (Gurav): 140 nM
GI50 (KB): 170 nM

melting point: 198 to 199 °C
Compound: COc1cc(C2C3=C(COC3=O)Nc3ccc4cc(C)[nH]c4c32)ccc1F (stereo not drawn) [Compound 4l, 10-(4-fluoro-3-methoxyphenyl)-2-methyl-6,7,9,10-tetrahydro-1H-furo[3,4-b]pyrrolo[2,3-f]quinolin-9-one]
GI50 (A-2780): 2400 nM
GI50 (Hop62): 2400 nM
GI50 (MCF7): 2600 nM
GI50 (DWD): 2100 nM
GI50 (Gurav): 2500 nM

melting point: 217 to 218 °C
Compound: COc1ccc(C2C3=C(COC3=O)Nc3ccc4cn[nH]c4c32)cc1[N+](=O)[O-] (stereo not drawn) [Compound 4r, 10-(4-methoxy-3-nitrophenyl)-6,7,9,10-tetrahydro-1H-furo[3,4-b]pyrazolo[3,4-f]quinolin-9-one]
GI50 (A-2780): 130 nM
GI50 (Colo 205): 2200 nM
GI50 (Hop62): 130 nM
GI50 (MCF7): 160 nM
GI50 (DWD): < 100 nM
GI50 (Zr-75-1): 140 nM
GI50 (A-549): < 100 nM
GI50 (PC3): 160 nM
GI50 (Gurav): 140 nM
GI50 (KB): 120 nM

melting point: 307 to 309 °C
Compound: COc1cc(C2C3=C(COC3=O)Nc3ccc4cn[nH]c4c32)ccc1F (stereo not drawn) [Compound 4q, 10-(4-fluoro-3-methoxyphenyl)-6,7,9,10-tetrahydro-1H-furo[3,4-b]pyrazolo[3,4-f]quinolin-9-one]
GI50 (MCF7): 2700 nM
GI50 (A-549): 2300 nM
GI50 (Gurav): 2600 nM

melting point: 238 to 240 °C
Compound: COc1cc(C2C3=C(COC3=O)Nc3ccc4cn[nH]c4c32)ccc1O (stereo not drawn) [Compound 4o, 10-(4-hydroxy-3-methoxyphenyl)-6,7,9,10-tetrahydro-1H-furo[3,4-b]pyrazolo[3,4-f]quinolin-9-one]
GI50 (Colo 205): 2000 nM
GI50 (Hop62): 2800 nM
GI50 (MCF7): 2000 nM
GI50 (Zr-75-1): 2100 nM
GI50 (PC3): 2300 nM

Compound: COc1cc(C2C3=C(COC3=O)Nc3ccc4cc(C)[nH]c4c32)cc(OC)c1OC (stereo not drawn) [Compound 4j, 2-methyl-10-(3,4,5-trimethoxyphenyl)-6,7,9,10-tetrahydro-1H-furo[3,4-b]pyrrolo[2,3-f]quinolin-9-one]
GI50 (SiHa): 2600 nM

melting point: 297 to 299 °C
Compound: COc1ccc(C2C3=C(COC3=O)Nc3ccc4cc[nH]c4c32)cc1O (stereo not drawn) [Compound 4g, 10-(3-hydroxy-4-methoxyphenyl)-6,7,9,10-tetrahydro-1H-furo[3,4-b]pyrrolo[2,3-f]quinolin-9-one]
GI50 (A-2780): 2700 nM
GI50 (Colo 205): 190 nM
GI50 (Hop62): 2200 nM
GI50 (MCF7): 2900 nM
GI50 (Zr-75-1): 2800 nM
GI50 (A-549): 2300 nM
GI50 (Gurav): 2300 nM
GI50 (KB): 2200 nM

Compound: COc1nc2c(c(OC)n1)C(c1cc(OC)c(OC)c(OC)c1)C1=C(COC1=O)N2 (stereo not drawn) [Compound 4a, 2,4-dimethoxy-5-(3,4,5-trimethoxyphenyl)-5,6,8,9-tetrahydrofuro[3′,4′:5,6]pyrido[2,3-d]pyrimidin-6-one]
melting point: 299 to 300 °C
GI50 (Colo 205): 160 nM
GI50 (Hop62): 2500 nM
GI50 (MCF7): 2400 nM
GI50 (DWD): 2400 nM
GI50 (Zr-75-1): 2200 nM
GI50 (A-549): 2100 nM
GI50 (PC3): 2400 nM
GI50 (Gurav): 2000 nM
GI50 (KB): 170 nM

Compound: COc1cc(C2C3=C(COC3=O)Nc3ccc4cc[nH]c4c32)cc(OC)c1OC (stereo not drawn) [Compound 4e, 10-(3,4,5-trimethoxyphenyl)-6,7,9,10-tetrahydro-1H-furo[3,4-b]pyrrolo[2,3-f]quinolin-9-one]
GI50 (A-2780): 2700 nM
melting point: 299 to 301 °C
GI50 (Colo 205): 2300 nM
GI50 (DWD): 2800 nM
GI50 (Zr-75-1): 2800 nM
GI50 (A-549): 2400 nM
GI50 (KB): 2000 nM

Compound: COc1cc(C2C3=C(COC3=O)Nc3ccc4cc[nH]c4c32)ccc1O (stereo not drawn) [Compound 4f, 10-(4-hydroxy-3-methoxyphenyl)-6,7,9,10-tetrahydro-1H-furo[3,4-b]pyrrolo[2,3-f]quinolin-9-one]
melting point: 301 to 303 °C
GI50 (Colo 205): 2500 nM
GI50 (MCF7): 2300 nM
GI50 (DWD): 2400 nM
GI50 (Zr-75-1): 2000 nM
GI50 (Gurav): 2600 nM

melting point: 296 to 297 °C
Compound: COc1cc(C2C3=C(COC3=O)Nc3ccc4ncsc4c32)ccc1O (stereo not drawn) [Compound 4t, 10-(4-hydroxy-3-methoxyphenyl)-6,7,9,10-tetrahydrofuro[3,4-b][1,3]thiazolo[5,4-f]quinolin-9-one]
GI50 (A-2780): 150 nM
GI50 (Colo 205): 2200 nM
GI50 (Hop62): 120 nM
GI50 (MCF7): 150 nM
GI50 (DWD): < 100 nM
GI50 (Zr-75-1): < 100 nM
GI50 (A-549): < 100 nM
GI50 (PC3): 160 nM
GI50 (Gurav): 140 nM
GI50 (KB): 150 nM
